US7166618B2, “Nitrosated and nitrosylated cyclooxygenase-2 inhibitors, compositions and methods of use” (NitroMed, Inc., priority 1999, dated 2007)
Entries after “also recorded” stand apart in the source; their conditions may differ.

What was measured:
[1] = system: carrageenan-induced rat paw edema; experiment: Carrageenan-induced rat paw edema test; type: in vivo; conditions: rats dosed intragastrically, paw volume 3 hours after carrageenan
Method: The carrageenan-induced rat paw edema test was used to measure antiinflammatory activity. The paw edema test was performed according to the method of Winter et al, Proc. Soc. Exp. Biol. Med. 111: 544–547, 1962. Male Sprague-Dawley rats (200–250 g) were fasted for 24 hours with water ad libitum. The rats were dosed intragastrically with test compounds in a volume of 5 mL/kg. One hour after dosing the paw volume was measured. Then each rat received a subplantar injection of 50 μl of 1% suspension of carrageenan. Three hours later, the paw volume was measured and compared with the initial volume measured […]. The increase in paw volume is presented as the mean±SEM for 5 rats per group. Data were analyzed by performing an ANOVA test followed by a Student-Keuls post hoc test.

ovine COX-1 = target: T1, ovine COX-1 (Ovis aries, UniProt P05979); experiment: biochemical; conditions: for IC50: ovine COX-1
T1 sequence (P05979 25-600): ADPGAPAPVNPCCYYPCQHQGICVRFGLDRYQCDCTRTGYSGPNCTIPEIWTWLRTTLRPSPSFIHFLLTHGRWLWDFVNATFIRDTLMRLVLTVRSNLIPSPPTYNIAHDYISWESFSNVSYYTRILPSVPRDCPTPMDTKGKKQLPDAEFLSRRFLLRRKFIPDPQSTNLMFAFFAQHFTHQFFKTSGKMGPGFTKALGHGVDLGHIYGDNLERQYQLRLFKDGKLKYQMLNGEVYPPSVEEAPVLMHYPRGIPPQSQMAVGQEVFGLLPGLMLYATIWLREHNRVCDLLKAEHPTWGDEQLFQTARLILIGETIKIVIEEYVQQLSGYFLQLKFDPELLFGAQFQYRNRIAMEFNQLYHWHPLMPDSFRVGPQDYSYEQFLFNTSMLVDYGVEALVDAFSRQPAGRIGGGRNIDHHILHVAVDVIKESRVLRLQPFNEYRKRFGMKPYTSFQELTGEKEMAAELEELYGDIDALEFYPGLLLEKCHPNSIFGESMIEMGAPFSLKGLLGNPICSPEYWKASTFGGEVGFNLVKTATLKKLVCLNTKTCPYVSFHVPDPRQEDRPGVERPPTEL
Method: (§1) The ovine COX-1 and COX-2 activities and the measurement of the prostaglandin products synthesized were performed using the COX Inhibitor Screening Assay (Cayman Chemical, Ann Arbor, Mich., which also contained the Prostaglandin Screening EIA Kit, used for prostaglandin quantification). The test compounds were dissolved at 50 times the highest final reaction concentration in DMSO or any other suitable solvent as stock solutions. These stock solutions were then diluted in the same solvent. Eight glass test tubes (13×100 mm) were placed in a 37° C. water bath. To each test tube was added 950 μL of reaction buffer (0.1 M Tris-HCl, pH 8.0, containing 5 mM EDTA, and 2 mM phenol), 10 μL of 100 µM heme solution, and 10 μL (5 units) of either ovine COX-1 or COX-2 and the resulting mixture was incubated with the enzyme for 2 minutes. Twenty μL of the solvent was added to one tube (100% initial activity or solvent control) and 20 μL of each dilution of the test compound was added to one tube each. Each tube was vortexed immediately after the addition. The enzyme was incubated with the inhibitor for 3.5 minutes at 37° C. The enzymatic reaction was then initiated by the addition of 10 μL of freshly prepared 10 mM arachidonic acid (neutralized with KOH), vortexed and then incubated for 2 minutes at 37° C. The reaction was terminated by the addition of 50 μL of 1 M HCl, vortexed and placed at room temperature. One hundred microliters of a saturated stannous chloride solution (50 mg/mL of 0.1 M HCl) was added and the reaction mixture was allowed to stand at room temperature for at least 5 minutes.
(§2) The prostaglandins (PG) produced in the reactions were assayed, after a 2,000-fold dilution, using the Prostaglandin Screening EIA Kit (Cayman Chemical, Ann Arbor, Mich.). The assay-contains an antibody with broad specificity for all the prostaglandin families (PGF, PGE, PGD, and thromboxane B-type) synthesized in the COX-1/COX 2 reactions. The synthesized prostaglandin competes with a PG-tagged acetylcholine esterase tracer for binding to the PG antibody. Binding of synthesized PG lowers the calorimetric development of the Ellman's Reagent (computed as % B/B0). The actual amount of synthesized PG was interpolated from a standard curve using known amounts of supplied prostaglandin E2 (PGE2) (PGE2 concentration vs. % B/B0). The data generated were the mean±standard deviation of triplicate wells in the EIA for a single reaction at a given inhibitor concentration.

[2] = system: rat aortic smooth muscle rings; experiment: Relaxation of phenylephrine-contracted rat aortic smooth muscle rings; conditions: rings precontracted with 10 μM phenylephrine; for relaxation of aortic smooth muscle ring: 100 nM to 100 μM test compound; for relaxation compared with reference NO donor (ISDN or GSNO): comparator as in the value
Method: Male Sprague-Dawley rats (Charles River Laboratories (Wilmington, Mass.) were euthanized by intraperiton injection of a high dose of sodium pentobarbitone (80–100 mg/kg). The thoracic aorta was rapidly excised and immediately placed in a Petri dish containing warm (37° C.) oxygenated (95% O2 and 5% CO2) Kreb's buffer (composition per millimolar: NaCl (119); KCl (4.69); CaCl2.H2O (2.52); MgSO4.7H2O (0.57); NaHCO3 (25); NaH2PO4.H2O (1.01) and glucose (11.1). Under a stereoscopic dissecting microscope, the aorta was cleaned, freed from adhering fat and connective tissues. The tissue was cut into ring segments, each approximately 2–3 mm in length.
For experiments to measure relaxation of the tissue under various conditions, a stainless steel tissue holder and an U-shaped stainless steel wire were inserted into the lumen of the aortic ring. The tissue holder anchored the ring at the bottom of the organ bath whereas the end of the U-shaped steel wire was tied with fine silk thread so that it connected to the FT-202 transducer. The tissue holder and the steel wire along with the aortic ring were then suspended in a 5-mL double-jacketed temperature-controlled glass organ bath (Radnoti Glass Technology, Inc., Monrovia, Calif.) filled with fresh Kreb's buffer. A mixture of 95% O2 and 5% CO2 was bubbled through a porous sintered disc at the bottom of the bath. The rings were given an initial resting tension of 1.5 g and the preparation was allowed to equilibrate at the initial tension for about 90 minutes. During this equilibration period, the bath fluid was changed every 15 minutes and replaced with fresh prewarmed (37° C.) Kreb's buffer. The isometric tension of the aortic muscle at rest and its response to different stimuli were recorded on a Power Macintosh 6100 computer via a MacLab 8/S computer interface (CB Sciences, Inc, Milford, Mass.) after an initial amplification through a low-noise ETH-400 bioamplifier (CB Sciences, Inc, Milford, Mass.). Contractile responsiveness of the tissue strips was established with 10 μM phenylephrine and the strips were incubated with the drug for 20 minutes to establish a steady level of contraction. To test the relaxation effects, test compounds were added to the phenylephrine-precontracted strips in the tissue bath at cumulative concentrations of 0.1 μM to 0.1 mM. Concentration of test compounds was increased only after relaxation at the previous concentration had reached a plateau level.

ovine COX-2 = target: T2, ovine COX-2 (Ovis aries, UniProt P79208); experiment: biochemical; type: biochemical; conditions: for IC50: ovine COX-2, read-out: COX-2 IC50
T2 sequence (P79208 17-603): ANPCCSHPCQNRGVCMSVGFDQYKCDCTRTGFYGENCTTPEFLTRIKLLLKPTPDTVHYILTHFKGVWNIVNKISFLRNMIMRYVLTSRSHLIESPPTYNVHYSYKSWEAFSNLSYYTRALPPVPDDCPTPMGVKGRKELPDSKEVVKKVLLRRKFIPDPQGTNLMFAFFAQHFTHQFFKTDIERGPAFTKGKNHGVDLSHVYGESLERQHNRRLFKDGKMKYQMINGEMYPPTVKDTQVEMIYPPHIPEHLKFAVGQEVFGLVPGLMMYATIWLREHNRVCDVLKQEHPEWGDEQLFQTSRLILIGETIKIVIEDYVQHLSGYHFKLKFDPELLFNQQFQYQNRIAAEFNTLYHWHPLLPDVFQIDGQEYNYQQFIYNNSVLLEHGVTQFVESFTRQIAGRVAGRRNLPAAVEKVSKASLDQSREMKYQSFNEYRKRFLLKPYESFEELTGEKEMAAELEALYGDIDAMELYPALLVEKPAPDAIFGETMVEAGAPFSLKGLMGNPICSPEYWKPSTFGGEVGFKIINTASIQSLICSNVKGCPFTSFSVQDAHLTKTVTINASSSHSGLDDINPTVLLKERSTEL
Method: as §1, §2

Row | SMILES | paw volume (antiinflammatory activity) [1] | IC50 (ovine COX-1) [µM] | relaxation of aortic smooth muscle ring [2] | relaxation compared with reference NO donor (ISDN or GSNO) [2] | IC50 (ovine COX-2) [µM] | inhibition at 100 µM (ovine COX-1; Ovine COX-1 (footnote a), at 100 μM) [%] | relaxation compared with reference NO donor (ISDN or GSNO) ([2]; Citrate Salt) | COX-2 inhibition potency compared with the parent compound (ovine COX-2; ovine enzymes, from Table 1)
1 | Cc1ccc(-c2cc(C(F)(F)F)nn2-c2ccc(S(N)(=O)=O)cc2)cc1 [Celecoxib, 4-(5-(4-methylphenyl)-3-(trifluoromethyl)-1H-pyrazol-1-yl)benzenesulfonamide] | reduced the paw volume | – | – | – | – | – | – | –
2 | NS(=O)(=O)c1ccc(-n2nc(CO[N+](=O)[O-])cc2-c2ccc(Cl)cc2)cc1 [Example 1b, 4-(5-(4-Chlorophenyl)-3-((nitrooxy)methyl)-3-hydropyrazolyl) benzenesulfonamide] | – | 190 | induced the relaxation of the aortic ring | more potent than that obtained by the nitrate compound, isosorbide dinitrate | 10 | – | – | –
3 | NS(=O)(=O)c1ccc(-c2c(-c3ccccc3)noc2CO)cc1 [Example 2a, 4-(5-(Hydroxymethyl)-3-phenylisoxazol-4-yl)benzenesulfonamide, reference compound] | reduced the paw volume | > 300 | did not relax the tissue; also recorded: did not relax the aortic ring | – | – | 0 | – | –
4 | Cc1onc(-c2ccccc2)c1-c1ccc(S(=O)(=O)NC(=O)CCC(=O)OCCC2(SN=O)CCN(C)CC2)cc1.O=C(O)CC(O)(CC(=O)O)C(=O)O [Example 3g, 2-(1-Methyl-4-(nitrosothio)-4-piperidyl)ethyl 3-(N-((4-(5-methyl-3-phenylisoxazol-4-yl)phenyl)sulfonyl)carbamoyl)propanoate Citrate Salt] | – | > 300 | induced the relaxation of the aortic ring | – | 70 | – | comparable to that obtained with GSNO | not as potent as the parent non-nitrosylated compound
5 | CS(=O)(=O)c1ccc(-c2nc3cc(CO)ccn3c2-c2ccc(F)cc2)cc1 [Example 5a, 1-(3-(4-Fluorophenyl)-7-(hydroxymethyl)(3a-hydroimidazolo(1,2-a)pyridin-2-yl))-4-(methylsulfonyl)benzene, reference compound] | – | > 300 | – | – | 12 | – | – | –
